In one experiment the target is T1, Bcl-2-like protein 10 (Homo sapiens, UniProt Q9HD36).
T1 sequence (Q9HD36 whole entry): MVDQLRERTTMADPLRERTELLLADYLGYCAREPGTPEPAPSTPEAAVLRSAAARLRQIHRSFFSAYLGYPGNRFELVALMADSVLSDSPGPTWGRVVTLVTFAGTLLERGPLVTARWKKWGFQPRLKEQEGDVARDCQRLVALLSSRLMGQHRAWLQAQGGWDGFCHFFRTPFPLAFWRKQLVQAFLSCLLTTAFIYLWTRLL
The experiment is described as follows: displacers of TR3 peptide from Bcl-B, primary screen, selectivity assay for Bfl-1 inhibitor project, biochemical, fluorescence polarization, FITC-TR3 peptide (AID 748).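 Also: fluorescence polarization from a fluorescein-labelled TR3 peptide binding purified Bcl-B.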

Experiment [1] addresses Induced myeloid leukemia cell differentiation protein Mcl-1 (Homo sapiens, UniProt Q07820). In kind it is functional.
In experiment [2] the target is Protein-tyrosine kinase 2-beta (Homo sapiens, UniProt Q14289).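 Also: potency of inhibitors of PYK2 kinase phosphorylation of poly-GT substrate.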
Experiment [3] deals with T2, Heat shock factor protein 1 (Mus musculus, UniProt P38532).
T2 sequence (P38532 whole entry): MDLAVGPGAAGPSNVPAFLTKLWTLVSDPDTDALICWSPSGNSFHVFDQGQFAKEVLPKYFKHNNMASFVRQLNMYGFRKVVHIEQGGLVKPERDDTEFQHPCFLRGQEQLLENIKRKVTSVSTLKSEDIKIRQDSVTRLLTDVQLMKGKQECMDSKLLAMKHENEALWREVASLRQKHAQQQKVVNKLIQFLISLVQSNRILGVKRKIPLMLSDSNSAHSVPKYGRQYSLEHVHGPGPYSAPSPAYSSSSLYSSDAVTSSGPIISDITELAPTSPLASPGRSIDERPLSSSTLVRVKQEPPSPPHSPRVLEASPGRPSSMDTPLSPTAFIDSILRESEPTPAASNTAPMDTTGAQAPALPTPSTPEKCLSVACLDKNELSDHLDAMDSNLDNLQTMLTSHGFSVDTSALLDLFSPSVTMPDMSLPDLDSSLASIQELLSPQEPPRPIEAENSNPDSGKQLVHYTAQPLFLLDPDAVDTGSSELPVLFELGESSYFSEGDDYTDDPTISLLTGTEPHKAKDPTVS
The experiment is described as follows: inhibition of MG132-induced HSE-luciferase signal, confirmation, cell-based, NIH3T3, luminescence, dose retest (AID 2382).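 Also: NIH3T3 fibroblasts with HSF1-driven luciferase reporter stressed by proteasome inhibitor MG132; luminescence from HSF1-driven luciferase expression after 8 hours of MG132 stress.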 The experiment is classed as functional.

Experiment [4] deals with T3, Mannose-6-phosphate isomerase (Homo sapiens, UniProt P34949).
T3 sequence (P34949 whole entry): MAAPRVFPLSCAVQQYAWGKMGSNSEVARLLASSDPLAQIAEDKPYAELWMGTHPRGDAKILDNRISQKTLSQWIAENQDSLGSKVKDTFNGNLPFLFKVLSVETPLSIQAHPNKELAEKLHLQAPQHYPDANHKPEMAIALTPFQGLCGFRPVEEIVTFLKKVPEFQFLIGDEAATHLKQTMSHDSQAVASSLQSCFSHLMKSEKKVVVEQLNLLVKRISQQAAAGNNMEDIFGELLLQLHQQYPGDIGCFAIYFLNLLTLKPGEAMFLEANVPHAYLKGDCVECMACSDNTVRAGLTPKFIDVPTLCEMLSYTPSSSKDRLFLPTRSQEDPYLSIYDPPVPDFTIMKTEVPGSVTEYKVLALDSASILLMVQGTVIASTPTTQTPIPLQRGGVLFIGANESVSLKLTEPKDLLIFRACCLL
The experiment is described as follows: human PMI inhibitors, high substrate, primary screen, biochemical, fluorescence intensity, high mannose 6-phosphate (AID 1220).

A short description of experiment [5]: control 3'UTR Renilla luciferase suppression, dose response, counter-screen for Shn3 inhibitor project, cell-based, Clone20-Shn3RL, cherry-picked (AID 624133). The experiment is classed as functional.
The target in experiment [6] is T4, Polyadenylate-binding protein 1 (Homo sapiens, UniProt P11940). Briefly: PABP1 MLLE–PAM2 binding inhibitor potency, dose response, biochemical, fluorescence polarization, FITC-PAM2 peptide (AID 602259). The experiment is classed as functional. As to conditions: read-out: IC50_Mean.
Experiment [7] can be described thus: Shn3 3'UTR reporter inhibitors, dose response, cell-based, Clone20 osteoblasts, firefly luciferase, cherry-picked (AID 624132).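 Also: firefly luciferase luminescence from reporter carrying the Shn3 3'UTR in osteoblasts.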 The experiment is classed as functional.
The target of a further experiment is Nonstructural protein 1 (Influenza A virus, UniProt Q194T2). The experiment is classed as functional, Influenza A virus (A/California/07/2009(H1N1)).
For experiment [8], the target named is T3, Mannose-6-phosphate isomerase. Briefly: inhibitors of human PMI, primary screen, biochemical, fluorescence intensity, coupled assay (AID 1209).
A short description of experiment [9]: HepG2 cell cytotoxicity, dose response, cytotoxicity control for Shn3 inhibitor project, CellTiter-Glo, cherry-picked (AID 624134). In kind it is functional, cell-based.
Experiment [10] concerns the target T4, Polyadenylate-binding protein 1. Briefly: PABP1 MLLE–PAM2 interaction inhibitors, dose response, miRNA deadenylation inhibitor project, biochemical, fluorescence polarization, Cy5-PAM2 peptide, secondary (AID 602260). The settings on record: read-out: IC50_Mean. In kind it is functional.
Another experiment deals with INS1. Briefly: beta cell apoptosis inhibitors, cytokine rescue, dose response, luminescence, retest (AID 449756).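 Also: cell death triggered by IL-1 beta plus TNF-alpha plus IFN-gamma mixture; protective hits raise ATP signal compared with cytokine alone wells.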 In kind it is functional, cell-based. The settings on record: Rattus norvegicus.
Experiment [11] is described as follows: Late stage counterscreen results from the probe development effort to identify activators of signal transducer and activator of transcription 1 (STAT1): luminescence-based cell-based dose response assay to identify cytotoxic compounds. The experiment is classed as functional.
Experiment [12] addresses T5, Endoribonuclease toxin MazF (Escherichia coli K-12, UniProt P0AE70).
T5 sequence (P0AE70 whole entry): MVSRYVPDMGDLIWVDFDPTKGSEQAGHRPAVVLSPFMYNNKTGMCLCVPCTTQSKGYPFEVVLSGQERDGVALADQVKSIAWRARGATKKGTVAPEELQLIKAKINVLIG
Briefly: MazF toxin RNase activators, dose response, biochemical, fluorescence, single-stranded RNA substrate, uHTS hits (AID 588481). In kind it is functional.

Experiment [13] concerns the target T5, Endoribonuclease toxin MazF. The experiment is described as follows: fluorescent RNA oligo signal without MazF, dose response, counter-screen for MazEF activator project, biochemical, fluorescence, single-stranded RNase substrate (AID 588502). The experiment is classed as functional.
Experiment [14] has as its target T6, Estrogen receptor beta (Homo sapiens, UniProt Q92731). The experiment is described as follows: ERβ–SRC-3 coactivator interaction inhibitors, confirmation, orthogonal assay, biochemical, ELISA, streptavidin-HRP readout (AID 1060).
The nature of experiment [15]: cytotoxicity in HPDE-C7 cells, cell-based, fluorescence, HTS (AID 430). In kind it is functional. As to conditions: Homo sapiens.
Experiment [16] addresses T7, Tyrosine-protein phosphatase non-receptor type 7 (Homo sapiens, UniProt P35236).
T7 sequence (P35236 whole entry): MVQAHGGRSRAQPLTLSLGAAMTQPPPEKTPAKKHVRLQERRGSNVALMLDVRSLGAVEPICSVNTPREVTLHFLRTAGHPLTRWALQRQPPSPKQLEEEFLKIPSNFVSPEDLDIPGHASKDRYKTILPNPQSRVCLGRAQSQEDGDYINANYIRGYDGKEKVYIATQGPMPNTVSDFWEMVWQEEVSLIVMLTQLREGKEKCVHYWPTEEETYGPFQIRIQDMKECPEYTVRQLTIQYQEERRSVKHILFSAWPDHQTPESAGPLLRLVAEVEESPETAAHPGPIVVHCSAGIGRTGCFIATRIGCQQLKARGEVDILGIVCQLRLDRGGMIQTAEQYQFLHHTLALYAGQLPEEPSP
Briefly: inhibitors of human HePTP phosphatase, […], biochemical, absorbance, leukemia target (AID 521). The experiment is classed as functional.

Another experiment deals with Cytochrome P450 2D6 (Homo sapiens, UniProt P10635).
Experiment [17] has as its target T2, Heat shock factor protein 1. The experiment is described as follows: HSF1 potentiators in luciferase reporter cells, confirmation, cell-based, NIH3T3, luminescence, dose retest (AID 435004).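 Also: stress induced by proteasome inhibitor MG132 added 30 min after compound; luciferase reporter driven by HSF1 response element in NIH3T3 cells; actives raise luminescence as potentiators of the MG132 stress response.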 The experiment is classed as functional.
Experiment [18] can be described thus: cytotoxicity in KRAS-transformed pancreatic duct cells, primary screen, cell-based, fluorescence, HTS (AID 431).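 Also: cell line used: HPDE-C7K.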 The experiment is classed as functional. As to conditions: Homo sapiens.
Experiment [19] addresses T6, Estrogen receptor beta.

Activity calls are given as the source filed them.

T6 sequence (Q92731 whole entry): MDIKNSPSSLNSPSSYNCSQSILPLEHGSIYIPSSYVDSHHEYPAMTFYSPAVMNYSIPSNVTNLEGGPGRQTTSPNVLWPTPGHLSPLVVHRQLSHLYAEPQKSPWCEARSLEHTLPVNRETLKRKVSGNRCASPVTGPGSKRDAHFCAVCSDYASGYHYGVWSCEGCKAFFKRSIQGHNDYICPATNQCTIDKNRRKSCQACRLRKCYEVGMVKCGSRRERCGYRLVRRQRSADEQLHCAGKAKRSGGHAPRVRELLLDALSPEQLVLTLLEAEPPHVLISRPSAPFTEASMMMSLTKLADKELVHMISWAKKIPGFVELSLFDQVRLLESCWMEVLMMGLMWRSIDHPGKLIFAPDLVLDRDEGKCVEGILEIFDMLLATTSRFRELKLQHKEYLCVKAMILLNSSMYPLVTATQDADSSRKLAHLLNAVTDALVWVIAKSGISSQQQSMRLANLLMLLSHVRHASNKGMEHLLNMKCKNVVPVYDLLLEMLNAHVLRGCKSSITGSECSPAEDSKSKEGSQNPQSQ
T4 sequence (P11940 whole entry): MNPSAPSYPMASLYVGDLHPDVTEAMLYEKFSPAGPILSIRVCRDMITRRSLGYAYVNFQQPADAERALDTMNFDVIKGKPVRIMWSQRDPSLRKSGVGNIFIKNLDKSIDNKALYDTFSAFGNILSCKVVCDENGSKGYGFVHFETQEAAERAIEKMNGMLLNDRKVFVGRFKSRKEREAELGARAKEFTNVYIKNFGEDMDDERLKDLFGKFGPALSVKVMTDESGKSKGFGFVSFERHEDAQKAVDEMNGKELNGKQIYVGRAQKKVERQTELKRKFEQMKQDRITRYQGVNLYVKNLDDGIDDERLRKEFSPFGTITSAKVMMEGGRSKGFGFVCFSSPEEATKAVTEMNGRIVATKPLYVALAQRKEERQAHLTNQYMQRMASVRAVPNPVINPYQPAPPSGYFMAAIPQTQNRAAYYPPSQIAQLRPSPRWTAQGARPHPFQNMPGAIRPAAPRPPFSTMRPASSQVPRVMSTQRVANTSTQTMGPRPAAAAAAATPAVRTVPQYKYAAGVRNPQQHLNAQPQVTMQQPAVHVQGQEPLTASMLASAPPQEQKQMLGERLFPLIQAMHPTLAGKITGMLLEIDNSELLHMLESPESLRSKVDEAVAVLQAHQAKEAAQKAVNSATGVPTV
Chain of Protein-tyrosine kinase 2-beta (Q14289 whole entry): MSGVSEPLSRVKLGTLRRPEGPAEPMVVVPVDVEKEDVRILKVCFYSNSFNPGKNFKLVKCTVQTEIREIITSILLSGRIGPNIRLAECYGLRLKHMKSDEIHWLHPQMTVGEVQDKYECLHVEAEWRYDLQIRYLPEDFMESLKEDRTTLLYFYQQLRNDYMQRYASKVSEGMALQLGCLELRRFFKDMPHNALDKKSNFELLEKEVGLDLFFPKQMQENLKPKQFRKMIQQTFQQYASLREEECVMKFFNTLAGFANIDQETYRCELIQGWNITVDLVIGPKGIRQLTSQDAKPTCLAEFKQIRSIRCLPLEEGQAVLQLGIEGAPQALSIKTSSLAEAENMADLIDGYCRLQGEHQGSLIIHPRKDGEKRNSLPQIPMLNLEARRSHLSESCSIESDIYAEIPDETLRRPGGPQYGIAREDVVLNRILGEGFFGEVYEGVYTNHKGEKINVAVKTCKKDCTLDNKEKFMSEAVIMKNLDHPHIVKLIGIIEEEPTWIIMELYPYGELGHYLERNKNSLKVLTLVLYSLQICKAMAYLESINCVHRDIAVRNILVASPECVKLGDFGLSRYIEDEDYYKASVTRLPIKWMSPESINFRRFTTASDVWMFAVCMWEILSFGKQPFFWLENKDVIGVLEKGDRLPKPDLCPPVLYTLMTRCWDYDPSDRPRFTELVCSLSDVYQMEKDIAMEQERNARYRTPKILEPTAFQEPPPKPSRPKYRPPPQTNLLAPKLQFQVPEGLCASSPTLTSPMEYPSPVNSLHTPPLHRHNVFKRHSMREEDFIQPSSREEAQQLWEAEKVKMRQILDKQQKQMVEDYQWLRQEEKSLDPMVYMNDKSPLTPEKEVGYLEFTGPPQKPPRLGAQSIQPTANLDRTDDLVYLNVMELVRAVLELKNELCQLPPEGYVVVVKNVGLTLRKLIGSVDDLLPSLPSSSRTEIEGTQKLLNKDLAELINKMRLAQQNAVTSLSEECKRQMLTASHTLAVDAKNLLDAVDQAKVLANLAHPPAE
Chain of Induced myeloid leukemia cell differentiation protein Mcl-1 (Q07820 whole entry): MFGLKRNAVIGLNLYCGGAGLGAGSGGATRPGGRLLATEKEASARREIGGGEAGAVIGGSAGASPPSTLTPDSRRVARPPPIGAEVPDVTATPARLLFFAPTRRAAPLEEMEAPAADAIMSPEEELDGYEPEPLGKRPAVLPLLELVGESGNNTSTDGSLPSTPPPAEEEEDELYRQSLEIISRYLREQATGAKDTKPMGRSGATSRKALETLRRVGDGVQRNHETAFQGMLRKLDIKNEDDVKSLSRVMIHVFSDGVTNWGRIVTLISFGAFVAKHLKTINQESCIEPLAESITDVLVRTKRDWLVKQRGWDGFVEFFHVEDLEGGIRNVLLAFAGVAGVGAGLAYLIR
Chain of Cytochrome P450 2D6 (P10635 whole entry): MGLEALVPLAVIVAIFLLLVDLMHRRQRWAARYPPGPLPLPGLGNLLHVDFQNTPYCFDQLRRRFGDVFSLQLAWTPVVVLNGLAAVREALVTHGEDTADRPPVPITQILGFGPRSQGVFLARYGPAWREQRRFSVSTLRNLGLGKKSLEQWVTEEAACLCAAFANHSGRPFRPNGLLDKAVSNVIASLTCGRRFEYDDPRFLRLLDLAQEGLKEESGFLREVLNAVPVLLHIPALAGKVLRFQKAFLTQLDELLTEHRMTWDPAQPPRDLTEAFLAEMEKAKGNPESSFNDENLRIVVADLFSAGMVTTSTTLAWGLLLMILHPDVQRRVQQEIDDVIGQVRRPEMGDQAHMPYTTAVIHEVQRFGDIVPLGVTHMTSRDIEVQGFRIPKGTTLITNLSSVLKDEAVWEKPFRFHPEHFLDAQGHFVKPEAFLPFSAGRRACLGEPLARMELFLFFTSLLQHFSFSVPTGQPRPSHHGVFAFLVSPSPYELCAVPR
Chain of Nonstructural protein 1 (Q194T2 whole entry): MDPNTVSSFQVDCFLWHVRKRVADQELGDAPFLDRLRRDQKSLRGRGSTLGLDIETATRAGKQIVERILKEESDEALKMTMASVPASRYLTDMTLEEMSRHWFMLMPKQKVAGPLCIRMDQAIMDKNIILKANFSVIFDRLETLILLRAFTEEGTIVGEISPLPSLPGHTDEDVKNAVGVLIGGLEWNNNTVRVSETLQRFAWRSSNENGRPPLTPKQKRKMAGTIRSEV

For the molecule `Cn1c(SCC(=O)Nc2ccc3nc(SCC(=O)N4CCCC4)sc3c2)nnc1-c1ccc(N)cc1`, the IC50 on Bcl-2-like protein 10 was 58.3 µM (inactive); in [1], 1.82 µM (active); in experiment [2], 2.5 µM (active).
Consider `Oc1ccc(CN2CCCc3ccccc32)c2cccnc12`, for which, in experiment [3], the concentration for a half-maximal effect (EC50) was 29 µM (active). The IC50 in [4] is > 50 µM (not active); in [6], > 66 µM (inactive); at Nonstructural protein 1, 32.2 µM (active); in experiment [8], > 50 µM (not active); in [10], > 66 µM (inactive). The AC50 is 17.3 µM (active) in experiment [5], 5.4 µM (active) in [7], 8.25 µM (active) in [9] and 11.8 µM (active) with INS1.
Consider `CCN(CC)c1ccc2cc(C(=O)Nc3ccccn3)c(=O)oc2c1`, for which the IC50 in [11] is reported as > 55.7 µM (not active). Also, the EC50 in [12] and in [13] was > 99 µM (inactive) each time.
On to `CCn1c(SCC(=O)N2CCOCC2)nc2oc3c(Cl)cc(Cl)cc3c(=O)c2c1=O`, for which the IC50 was 13.3 µM (not active) against Estrogen receptor beta [14], > 100 µM (not active) in experiment [16] and 17.2 µM (active) at Estrogen receptor beta [19]. The results for the EC50 in experiment [15], in experiment [17] and in experiment [18] were > 20 µM (not active), 16.1 µM (inconclusive) and > 20 µM (not active), respectively. Besides, the AC50 at Cytochrome P450 2D6 was 15.8 µM (inconclusive).

Source of the values: ChEMBL document CHEMBL1201862, “PubChem BioAssay data set” (2004).
